Our source for the IC50, inhibition and Ratio IC50 values is ChEMBL document CHEMBL4725281, “Design synthesis and evaluation of novel aldose reductase inhibitors: The case of indolyl-sulfonyl-phenols” (Bioorg Med Chem, 2020).

The target of test [1] is Aldo-keto reductase family 1 member B1 (Rattus norvegicus, UniProt P07943). Briefly: Inhibition of Fischer 344 rat eye lens ALR2 using D,L-glyceraldehyde as substrate measured up to 4 mins at 30 degC using NaHCO3/DMSO-dissolved compound by spectrophotometric analysis.
Test [2] has as its target Aldo-keto reductase family 1 member B1 (Rattus norvegicus) (UniProt P07943). Description: Inhibition of Fischer 344 rat eye lens ALR2 using D,L-glyceraldehyde as substrate measured up to 4 mins at 30 degC NaHCO3/DMSO-dissolved compound at 100 uM by spectrophotometric analysis relative to control. The conditions noted are these: time min <=4.
In test [3] the target is Aldo-keto reductase family 1 member A1 (Rattus norvegicus, UniProt P51635). Briefly: Inhibition of Fischer 344 rat kidney ALR1 using sodium D-glucuronate as substrate measured up to 4 mins at […] using NaHCO3/DMSO-dissolved compound by spectrophotometric analysis.
Sequence of Aldo-keto reductase family 1 member A1 (P51635 whole entry, looked up): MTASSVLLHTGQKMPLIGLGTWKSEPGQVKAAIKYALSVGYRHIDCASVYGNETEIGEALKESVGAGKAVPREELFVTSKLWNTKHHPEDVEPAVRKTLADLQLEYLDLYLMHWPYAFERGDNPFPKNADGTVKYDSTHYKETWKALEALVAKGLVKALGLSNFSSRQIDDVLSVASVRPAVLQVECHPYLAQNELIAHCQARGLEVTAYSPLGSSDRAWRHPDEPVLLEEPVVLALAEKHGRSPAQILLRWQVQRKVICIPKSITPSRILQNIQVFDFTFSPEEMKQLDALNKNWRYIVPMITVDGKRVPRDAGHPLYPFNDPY
The species named for another test is Rattus norvegicus. Description: Selectivity index, ratio of IC50 for Fischer 344 rat kidney ALR1 using sodium D-glucuronate as substrate measured up to 4 mins at 30 degC to IC50 for Fischer 344 rat eye lens ALR2 using D,L-glyceraldehyde as substrate measured up to 4 mins at 30 degC. The settings on record: time min <=4.

The compound `O=S(=O)(c1ccc(O)cc1)c1c[nH]c2ccccc12` registered an IC50 in test [1] of 59.6 µM.
As for `O=S(=O)(c1ccccc1O)n1ccc2ccccc21`, half-maximal inhibition in test [1] (IC50) required 14.2 µM.
Regarding `O=S(=O)(c1cc2ccccc2[nH]1)c1ccccc1O`, the inhibition in test [2] was found to be 12.3%.
Turning to `O=S(=O)(c1ccccc1O)c1c[nH]c2ccccc12`, the inhibition in test [2] came out at 14.6%.
`O=S(=O)(c1ccc(O)cc1)c1cc2ccccc2[nH]1`: half-maximal inhibition in test [1] (IC50) required 37.3 µM.
Regarding `O=S(=O)(c1ccc(O)cc1)n1ccc2ccccc21`, the IC50 in test [3] was 4.73 µM; in test [1] it was 4.51 µM. Besides, the Ratio IC50 in the test filed under Rattus norvegicus worked out at 1.05.
Regarding `O=S(=O)(c1ccc(O)c(F)c1)n1ccc2ccccc21`, the IC50 in test [3] turned out to be 11.7 µM; in test [1], 0.98 µM. In the test filed under Rattus norvegicus, the Ratio IC50 came out at 11.9.

One may read the IC50 as the midpoint of a concentration-inhibition curve. Low readings indicate greater potency, high ones weaker potency. What is called inhibition is the percentage by which the read-out fell short of the control. Read a low inhibition as a weak effect.
